Data on three molecules can be found in patent US6342504B1, “Aromatic heterocyclic derivatives as enzyme inhibitors” (priority 1994, dated 2002).

For experiment [1], the system named is clot formation on silk thread in A-V shunt. Briefly: Multiple extracorporeal (A-V) shunt model in rats utilizing oral dosing. Format: in vivo. Conditions: rat, read-out: ED50 value (dose that reduced the clot size by 50%). On the procedure: The compounds of Example 10 and 143 were evaluated in a multichamber A-V shunt model in rats. The A-V shunt model is one of the most common and generally used systems to evaluate antithrombotic compounds: Smith, J. R. and White, A. M. Br. J. Pharmacol., 77: 29-38 (1982). In this model a localized clot made up of primarily fibrin with some platelet and macrophage involvement (Shand, R. A. and Smith, J. R. and Wallis, R. B. Thromb. Res., 36: 223-232 (1984)), is formed on an artificial thrombogenic surface (typically a segment of silk or cotton thread) contained in a sialstic chamber which is part of an exteriorized shunt between the carotid artery and jugular vein. The procedure described in this Example is a modified A-V shunt model that allows for oral dosing of test agents and subsequent evaluation of efficacy over a two to three hour window in time.
Briefly, male Harlan Sprague Dawley rats (420-450 g) were acclimated at least 72 hours prior to use. The animals were fasted for 12 hours prior to surgery with free access to water. Unanesthetized animals were grouped into three or four dosage groups (six or seven animals per group) and administered test agents orally via gavage needle, at doses of 1.0, 3.0, 10 and 50 mg/kg for the compound of Example 10, and 3.0, 10 and 30 mg/kg for the Compound of Example 143. Immediately after oral dosing, animals were anesthetized with sodium pentobarbital (Nembutal) given intraperitoneally at a dose of 50 mg/kg body weight, and placed on a isothermal pad to maintain body temperature. The level of anesthesia was monitored every 15 minutes by neuro-response to a tail pinch, respiration and core temperature. The desired depth of surgical anesthesia was maintained by administering subsequent doses (5 mg/kg) intravenously. The left femoral artery was catheterized using standard procedures for blood pressure monitoring and blood sampling, with polyethylene tubing (PE50). The left femoral vein was catheterized with PE50 tubing for delivery of anethestic.
The exteriorized shunts were assembled by connecting two pieces of saline filled 12.5 cm PE90 tubing with a 6 cm piece of PE160 tubing containing a 6 cm piece of silk suture size 3 and clamped with hemostats. A small 0.5 cm portion of the silk thread protrudes from the junction of the chamber with the shunt. The left jugular vein and right carotid artery were catheterized with the ends of the PE90 shunt. The shunt was unclamped and blood allowed to flow from the carotid artery, through the chamber, and exit the shunt via the jugular vein. After 15 minutes, both sides of the chamber were clamped and the suture containing the clot removed following detachment of the arterial end of the chamber. The clot was immediately weighed and recorded. This procedure takes place at predetermined intervals (60, 90, 120, and 150 minutes after oral dosing) to allow assessment of efficacy over a large window in time. Four shunts were placed with flow initiated at 45, 75, 105, and 135 minutes after oral compound administration. Clot weight from the four shunts was the primary endpoint of the protocol. Blood pressure, heart rate core temperature and respiration were monitored continuously. Following termination of the experiment the animals were euthanized with a 120 mg/kg dose of Nembutal. One experiment was performed per animal.
ED50 values were calculated at 60, 90, 120, and 150 minutes after oral dosing of test compound. ED50 is that dose that reduced the clot size by 50%. […]

Experiment [2] relates to FeCl3-induced occlusive thrombus in rat carotid artery. Kind of experiment: Rat model of FeCl3-induced platelet-dependent arterial thrombosis. It is filed as in vivo. The source says: Rat Model of FeCl3-induced Platelet-dependent Arterial Thrombosis
Kurz, K. D., Main, B. W., and Sandusky, G. E., Thromb. […] In this model a platelet-rich, occlusive thrombus is formed in a segment of the rat carotid artery treated locally with a fresh solution of FeCl3 absorbed to a piece of filter paper. The FeCl3 is thought to diffuse into the treated segment of artery and cause de-endothelialization of the affected vessel surface. […] The effect of a test compound on the incidence of occlusive thrombus formation following the application of the FeCl3 is monitored by ultrasonic flowtometry and is used as the primary end point. The use of flowtometry to measure carotid artery blood flow, is a modification of the original procedure in which thermal detection of clot formation was employed. Kurz, K. D., Main, B. W., and Sandusky, G. E., Thromb.
Male Harlan Sprague Dawley rats (420-450 g) were acclimated at least 72 hours prior to use and fasted for 12 hours prior to surgery with free access to water. The animals were prepared, anesthetized with Nembutal followed by the insertion of catheters for blood pressure monitoring, drug and anesthesia delivery. The left carotid artery was isolated by making a midline cervical incision followed by blunt dissection and spreading techniques to separate a 2 cm segment of the vessel from the carotid sheath. A silk suture is inserted under the proximal and distal ends of the isolated vessel to provide clearance for the placement of a ultrasonic flow probe (Transonic) around the proximal end of the vessel. The probe is then secured with a stationary arm.
The test compound was administered as a single intravenous bolus at the doses outlined in Table 4 after placement of the flow probe and 5 minutes prior to the thrombogenic stimulus. At t=0, a 3 mm diameter piece of filter paper (Whatman #3) soaked with 10 microliters of a 35% solution of fresh FeCl3 (made up in water) was applied the segment of isolated carotid artery distal to the flow probe. Blood pressure, blood flow, heart rate, and respiration were monitored for 60 minutes.
The incidence of occlusion (defined as the attainment of zero blood flow) was recorded as the primary end point.
This allows a direct comparison of the antithrombotic efficacy of [3-[(benzylsulfonyl)amino]-2-oxo-1,2-dihydropyridyl]acetyl-L-argininal, with other antithrombotic agents which have also been evaluated in this model as described above. Table 5 lists the ED50 values for several well known anticoagulant agents in this model compared to [3-[(benzylsulfonyl)amino]-2-oxo-1,2-dihydropyridyl]acetyl-L-argininal.

Where two headings read alike, the source gives them in different places.

On to `N=C(N)NCCCC(C=O)NC(=O)Cn1cccc(NS(=O)(=O)Cc2ccccc2F)c1=O` (stereo not drawn) [Compound 121J], for which the ED50 – broadly, the midpoint of the dose-response relation – in experiment [1] (1 h, 60 min after oral dose) was determined as 22 mg/kg; in experiment [1] (1.5 h, 90 min after oral dose) it was 20 mg/kg; in experiment [1] (2 h, 120 min after oral dose) it was 24 mg/kg; in experiment [1] (150 min after oral dose), 28 mg/kg.

Regarding Hirulog ™ [reference compound], in experiment [2] (FeCl3 model of arterial thrombosis in rats), the “ED50 for thrombus prevention (dose that prevents complete thrombotic occlusion in 50% of animals)” value is reported as 3.0 mg/kg.

Consider `CC1CNc2c(cccc2S(=O)(=O)N[C@@H](CCCNC(=N)N)C(=O)N2CC[C@@H](C)C[C@@H]2C(=O)O)C1` (stereo partly drawn) [Argatroban, 2R,4R-4-methyl-1-[N-2-(3-methyl-1,2,3,4-tetrahydro-8-quinolinesulfonyl)-L-argininal]-2-piperdinecarboxylic acid, reference compound], for which, in experiment [2] (Rattus norvegicus, read-out: ED50 for thrombus prevention (dose that prevents complete thrombotic occlusion in 50% of animals)), the ED50 came out at 3.8 mg/kg.
